According to patent publication US12653776B2, “Methods of treatment of cancer by continuous infusion of coenzyme Q10” (priority 2013, dated 2026):

Assays:
[1] = system: liver chloromas (MIA C51 clone); assay: Liver chloroma rat model, survival; assay type: in vivo, rats
Text: The effect of dosing schedule of coenzyme Q10 was also investigated in rats bearing liver or lung chloromas. Rats were transplanted with liver or lung clones of malignant chloromas derived from a stable myelogenous leukemia (chloroleukemia) cell line, MIA C51 (see. e.g., Jimenez and Yunis (1987) Science 238: 1278-1280). The clones have been selected to home to and form tumors in the liver or lungs, respectively. Rats were randomized to receive either no treatment, injection 3 times a day with 40 mg/mL (4%) coenzyme Q10, or continuous infusion of 40 mg/mL (4%) coenzyme Q10 via an implanted pump, to deliver for each regimen a total dose of 50 mg/kg body weight per day. […] For example, at Day 189 in the liver chloroma model, 45 of 50 rats were alive in the continuous infusion treatment group compared with 26 of 50 rats alive in the injection treatment group. All control animals were dead at Day 30.

solid tumors = assay: Phase 1 study, 144-hour (6 day) continuous infusion; assay type: in vivo, human; conditions: monotherapy and combination therapy
Experimental: A phase 1 clinical trial evaluating a 144-hour (6 day) continuous infusion of coenzyme Q10 for treatment of solid tumors is earned out. Coenzyme Q10 is administered as a monotherapy (Arm 1) or in combination with chemotherapy (Arm 2). […] The study is an open label, non-randomized dose-escalation study. The estimated enrollment is 45 patients for monotherapy (Arm 1), and up to 120 patients for combination therapy (Arm 2).
A dosing schedule of two 72-hour doses is used. For the first 72-hour dose, a loading dose over 1 hour is followed by infusion of the remainder of the dose over 71 hours at a lower rate. […]
A phase 1 clinical trial for treatment of solid tumors using coenzyme Q10 monotherapy and coenzyme Q10 in combination with chemotherapy is carried out. […] Dose limiting toxicities are assessed during Cycle 1.
Assessments of the antitumor activity of coenzyme Q10 are performed at the end of Cycle 2 and every 2 cycles thereafter using standard techniques such as computerized tomography (CT) or magnetic resonance imaging (MRI) for patients with measurable disease. Response is evaluated using Response Evaluation Criteria in Solid Tumors (RECIST) v1.1. […] Once a dose level of coenzyme Q10 monotherapy is evaluated and the CRC determines it safe to escalate to the next dose level, Cohort 1 of Treatment Arm 2 of coenzyme Q10 in combination with chemotherapy opens to accrual. […]

AML or ALL = assay: Phase 1a/b study, 18 day continuous infusion in relapsed/refractory AML or ALL; conditions: at the end of the study
Experimental: This study is conducted in the inpatient setting for the first 10 patients enrolled on monotherapy to closely monitor the coagulation profile, gain experience and collect safety data during the first full cycle of therapy (21 days) and at least 30 days of post-dosing follow-up Platelet count and coagulation parameters are obtained every day in the inpatient setting. […] Treatment may continue in either the inpatient and/or outpatient setting for subsequent patients enrolled on study. Platelet count and coagulation are monitored at least 3 times/week in the outpatient setting and daily in the inpatient setting.
Each cycle of monotherapy is 21 days in length. […] Each cycle of combination therapy is 28 days in length. […] Patients who experience a DLT during cycle 1 of monotherapy or cycle 1 of combination therapy are discontinued.
On Day 1 of each cycle (i.e., Monday) the dose consists of an accelerated rate of infusion of 25% of the total dose volume over 1 hour with the remaining 75% of the dose volume infused over 23 hours. Subsequent daily doses (Days 2 through 18) are infused uniformly over 24 hours (no accelerated rate in the first hour). […] The principal investigator will consult with the Medical Monitor and the Chair of the DSMB to determine the appropriate dose level for each patient.

chloroleukemia (MIA C51) = conditions: IP
[2] = system: LnCaP human prostate adenocarcinoma cells; assay: Prostate cancer (LnCaP) mouse model, survival; assay type: in vivo, immunocompromised mice
Experimental: The observed improvement in animal cohorts administered coenzyme Q10 as a continuous infusion was repeated in other animal models of cancer. For example. […] LnCaP human prostate adenocarcinoma cells were injected into immunocompromised mice. Coenzyme Q10 was administered using two different dosing regimens. One cohort was administered a total dose of 75 mg/kg body weight per day by dosing 25 mg/kg body weight every 8 hours (multiple bolus regimen). In a second cohort, an infusion pump was surgically installed in the animals to facilitate continuous infusion of coenzyme Q10 at a total dose of 75 mg/kg body weight per day. Treatment was continued throughout the entire duration of the study.

[3] = system: cancer cell lines HT-29, A549, Hep3B, MDA-MB231, SkBr-3, MCF7, MiaPaCa-2, SKOV-3, PC-3; assay: Cancer cell line viability in vitro; assay type: cell-based; conditions: 100 μM coenzyme Q10; evident as early as 24 hours, increased progressively between 48 and 72 hours; all cell lines tested
Experimental: Various cancer cell lines were treated with coenzyme Q10 at 100 μM concentration to determine the effect on cancer cell viability. The cancer cell lines tested were HT-29 (colon), A549 (lung), Hep3B (liver), MDA-MB231 (breast), SkBr-3 (breast), MCF7 (breast), MiaPaCa-2 (pancreas), SKOV-3 (ovary), and PC-3 (prostate). Cell viability was measured between 24 and 72 hours. […] For example. […] The text at the bottom of the graph in FIG. 6 represents the gene mutation and mutation rate for each cell line. For example, the HT-29 cell line contains the APC mutation with a mutation rate of 126.

coenzyme Q10
survival compared to control ([1]; both continuous infusion and injection 3 times a day, 50 mg/kg per day): significantly prolonged survival | rats alive at Day 189 ([1]; continuous infusion of 40 mg/mL (4%) coenzyme Q10, 50 mg/kg body weight per day): 45 of 50 | effectiveness of continuous infusion regimen ([1]; continuous infusion vs injection 3 times a day, 50 mg/kg per day): much more effective than the injection regimen | rats alive at Day 189 ([1]; injection 3 times a day of 40 mg/mL (4%) coenzyme Q10, total 50 mg/kg body weight per day): 26 of 50 | clinical and/or radiographic responses (solid tumors; at least some patients): Clinical and/or radiographic responses are seen | safety and tolerability (solid tumors; six day continuous infusion): safe and well tolerated | outcomes by standard criteria (AML or ALL; e.g., decreased tumor burden): clinically relevant outcomes | adverse events with increased infusion duration (AML or ALL; vs four hour infusion at higher rate): decrease adverse events | survival in animals with metastasis to the lungs and liver (chloroleukemia (MIA C51); 50 mg/kg/day): significant increase in survival | limb paralysis (paraplegia due to brain metastasis) (chloroleukemia (MIA C51); (St) mg/kg/day): complete resolution of limb paralysis | survival rate ([2]; continuous infusion 75 mg/kg body weight per day vs multiple bolus regimen): even higher survival rate | survival rate ([2]; multiple bolus regimen, total 75 mg/kg body weight per day (25 mg/kg every 8 hours)): higher survival rate than the untreated control | cell viability [3]: decrease in cell viability
